Among the data in PubChem BioAssay AID248 (DTP/NCI, 2004) are T/C values, retold here.

Each structure is given as a SMILES string. Values joined by “and” are separate entries in the source; they are usually repeats but may differ in a detail not shown here. Equal entries are not always repeated. Toxic doses and inconclusive results are not listed.

For this assay, the system named is L1210 leukemia ip in BDF1 mice, survival T/C. Kind of assay: NCI In Vivo Anticancer Drug Screen. Data for tumor model L1210 Leukemia (intraperitoneal) in B6D2F1 (BDF1) mice. As to conditions: endpoint: mean survival time, higher = longer survival. The gist of the method:
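Value reflects the ratio of survival in compound-treated mice to survival in vehicle-treated controls, with both groups carrying the same transplanted tumor.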

Where [1] appears, read: dose: 100.0 mg/kg/injection, schedule: Q01DX001 (ip), vehicle: saline.
The mark [2] stands for this setting: dose: 200.0 mg/kg/injection, schedule: Q01DX001 (ip), vehicle: saline.
[3] abbreviates: dose: 400.0 mg/kg/injection, schedule: Q01DX001 (ip), vehicle: saline.
The mark [4] stands for this setting: dose: 100.0 mg/kg/injection, schedule: Q01DX009 (ip), vehicle: saline with Tween-80.
The mark [5] stands for this setting: dose: 100.0 mg/kg/injection, schedule: Q04DX002 (ip), vehicle: Klucel (hydroxypropylcellulose) (HPC).
[6] abbreviates: dose: 200.0 mg/kg/injection, schedule: Q04DX002 (ip), vehicle: Klucel (hydroxypropylcellulose) (HPC).
[7] abbreviates: dose: 400.0 mg/kg/injection, schedule: Q04DX002 (ip), vehicle: Klucel (hydroxypropylcellulose) (HPC).

With `CCN(CC)C(=S)SS(C)(=O)=O`, the T/C was 101 % of control under setting [1]; 97 % of control (dose: 100.0 mg/kg/injection, schedule: Q04DX003 (ip), vehicle: acetone); 97 % of control under setting [2]; 103 % of control (dose: 200.0 mg/kg/injection, schedule: Q04DX003 (ip), vehicle: acetone); 97 % of control under setting [3]; 101 % of control (dose: 400.0 mg/kg/injection, schedule: Q04DX003 (ip), vehicle: acetone).

Consider `CCCCCCCCCCCCCCCCCCNC(=O)Nc1ccc(C)cc1`, for which the T/C reads like this: (dose: 100.0 mg/kg/injection, schedule: Q01DX009 (sc), vehicle: olive oil, sesame oil, peanut oil) 112 % of control; (dose: 100.0 mg/kg/injection, schedule: Q04DX003 (sc), vehicle: olive oil, sesame oil, peanut oil) 114 % of control; (dose: 200.0 mg/kg/injection, schedule: Q01DX009 (sc), vehicle: olive oil, sesame oil, peanut oil) 106 % of control; (dose: 200.0 mg/kg/injection, schedule: Q04DX003 (sc), vehicle: olive oil, sesame oil, peanut oil) 104 % of control; (dose: 400.0 mg/kg/injection, schedule: Q01DX009 (sc), vehicle: olive oil, sesame oil, peanut oil) 106 % of control; (dose: 400.0 mg/kg/injection, schedule: Q04DX003 (sc), vehicle: olive oil, sesame oil, peanut oil) 98 % of control.

In the case of `N#C/C(=C\c1cccc([N+](=O)[O-])c1)c1ccccc1`, the T/C runs as follows: (dose: 100.0 mg/kg/injection, schedule: Q01DX001 (ip), vehicle: Klucel (hydroxypropylcellulose) (HPC)) 97 % of control; (dose: 200.0 mg/kg/injection, schedule: Q01DX001 (ip), vehicle: Klucel (hydroxypropylcellulose) (HPC)) 101 % of control; (dose: 400.0 mg/kg/injection, schedule: Q01DX001 (ip), vehicle: Klucel (hydroxypropylcellulose) (HPC)) 94 % of control.

In the case of `CCCc1cc(C(C)=O)c[n+](C2OC(COC(C)=O)C(OC(C)=O)C(OC(C)=O)C2OC(C)=O)c1` (stereo unspecified), the T/C (dose: 50.0 mg/kg/injection, schedule: Q01DX005 (ip), vehicle: water) is 97 % of control and the T/C (dose: 100.0 mg/kg/injection, schedule: Q01DX005 (ip), vehicle: water) was 97 % of control.

As for `O=NN(CCCl)C(=O)Nc1ccccc1`, the T/C is 114 % of control (dose: 2.0 mg/kg/injection, schedule: Q01DX Z (ip), vehicle: carboxymethylcellulose (CMC)); 169 % of control (dose: 4.0 mg/kg/injection, schedule: Q01DX Z (ip), vehicle: carboxymethylcellulose (CMC)); 160 % of control and 213 % of control (dose: 6.0 mg/kg/injection, schedule: Q01DX Z (ip), vehicle: carboxymethylcellulose (CMC)); 102 % of control (dose: 10.0 mg/kg/injection, schedule: Q01DX Z (ip), vehicle: carboxymethylcellulose (CMC)); 102 % of control (dose: 14.0 mg/kg/injection, schedule: Q01DX Z (ip), vehicle: carboxymethylcellulose (CMC)); 123 % of control (dose: 18.0 mg/kg/injection, schedule: Q01DX001 (ip), vehicle: carboxymethylcellulose (CMC)). Also, the T/C reads like this: (dose: 18.0 mg/kg/injection, schedule: Q01DX Z (ip), vehicle: carboxymethylcellulose (CMC)) 174 % of control; (dose: 20.0 mg/kg/injection, schedule: Q01DX Z (ip), vehicle: carboxymethylcellulose (CMC)) 166 % of control; (dose: 25.0 mg/kg/injection, schedule: Q01DX Z (ip), vehicle: carboxymethylcellulose (CMC)) 107 % of control and 89 % of control; (dose: 72.0 mg/kg/injection, schedule: Q01DX001 (ip), vehicle: carboxymethylcellulose (CMC)) 114 % of control.

As for `CCCCCCCCCCCCCCCCCCCCCCOC(=O)CCC(=O)OCCCCCCCCCCCCCCCCCCCCCC`, the T/C was 86 % of control (dose: 100.0 mg/kg/injection, schedule: Q01DX009 (ip), vehicle: gum acacia); 95 % of control (dose: 100.0 mg/kg/injection, schedule: Q04DX003 (ip), vehicle: gum acacia); 86 % of control (dose: 200.0 mg/kg/injection, schedule: Q01DX009 (ip), vehicle: gum acacia); 92 % of control (dose: 200.0 mg/kg/injection, schedule: Q04DX003 (ip), vehicle: gum acacia); 92 % of control (dose: 400.0 mg/kg/injection, schedule: Q04DX003 (ip), vehicle: gum acacia).

Turning to `O=C(Nc1ccccc1)OC1CCC2CC21` (stereo unspecified), the T/C by setting is: (dose: 50.0 mg/kg/injection, schedule: Q01DX009 (ip), vehicle: saline with Tween-80) 91 % of control; under setting [4], 87 % of control.

As for `CN(C)C1C(=O)C(C(N)=O)=C(O)C2(O)C(=O)C3=C(O)c4c(O)cccc4C(C)(O)C3C(O)C12` (stereo unspecified), the T/C was 94 % of control (dose: 19.5 mg/kg/injection, schedule: Q01DX Z (ip), vehicle: carboxymethylcellulose (CMC)); 91 % of control (dose: 39.0 mg/kg/injection, schedule: Q01DX Z (ip), vehicle: carboxymethylcellulose (CMC)); 93 % of control (dose: 50.0 mg/kg/injection, schedule: Q01DX001 (ip), vehicle: saline); 117 % of control (dose: 50.0 mg/kg/injection, schedule: Q01DX Z (ip), vehicle: water); 89 % of control (dose: 78.0 mg/kg/injection, schedule: Q01DX Z (ip), vehicle: carboxymethylcellulose (CMC)); 90 % of control under setting [1]. For the same molecule, the T/C was 119 % of control (dose: 100.0 mg/kg/injection, schedule: Q01DX Z (ip), vehicle: water); 98 % of control (dose: 156.0 mg/kg/injection, schedule: Q01DX Z (ip), vehicle: carboxymethylcellulose (CMC)); 95 % of control under setting [2]; 101 % of control under setting [3].

Turning to `CN(C)CCCN(CCCN(C)C)Cc1ccccc1`, the T/C was 104 % of control (dose: 75.0 mg/kg/injection, schedule: Q01DX001 (ip), vehicle: saline) and 97 % of control (dose: 150.0 mg/kg/injection, schedule: Q01DX001 (ip), vehicle: saline).

Turning to `C/C=C\c1ccc(OC(=O)NCCC)c(OC)c1`, the T/C reads like this: under setting [4], 95 % of control and 97 % of control; under setting [5], 100 % of control; (dose: 100.0 mg/kg/injection, schedule: Q04DX002 (ip), vehicle: saline with Tween-80) 102 % of control and 106 % of control; (dose: 100.0 mg/kg/injection, schedule: Q04DX003 (ip), vehicle: saline with Tween-80) 97 % of control; (dose: 200.0 mg/kg/injection, schedule: Q01DX009 (ip), vehicle: saline with Tween-80) 95 % of control and 97 % of control; under setting [6], 113 % of control. In addition, the T/C runs as follows: (dose: 200.0 mg/kg/injection, schedule: Q04DX002 (ip), vehicle: saline with Tween-80) 105 % of control and 112 % of control; (dose: 200.0 mg/kg/injection, schedule: Q04DX003 (ip), vehicle: saline with Tween-80) 87 % of control; (dose: 400.0 mg/kg/injection, schedule: Q01DX009 (ip), vehicle: saline with Tween-80) 97 % of control; under setting [7], 95 % of control; (dose: 400.0 mg/kg/injection, schedule: Q04DX002 (ip), vehicle: saline with Tween-80) 94 % of control and 106 % of control; (dose: 400.0 mg/kg/injection, schedule: Q04DX003 (ip), vehicle: saline with Tween-80) 102 % of control.

Take `NC(=O)c1ccc[n+](CCc2nc(N)c3[nH]cnc3n2)c1`: the T/C reads like this: (dose: 50.0 mg/kg/injection, schedule: Q04DX003 (ip), vehicle: saline) 97 % of control; (dose: 100.0 mg/kg/injection, schedule: Q04DX003 (ip), vehicle: saline) 97 % of control; (dose: 200.0 mg/kg/injection, schedule: Q04DX003 (ip), vehicle: saline) 103 % of control.

`CCCCCCCCc1ccccc1`: the T/C runs as follows: (dose: 100.0 mg/kg/injection, schedule: Q04DX002 (ip), vehicle: saline) 99 % of control; (dose: 200.0 mg/kg/injection, schedule: Q04DX002 (ip), vehicle: saline) 96 % of control; (dose: 400.0 mg/kg/injection, schedule: Q04DX002 (ip), vehicle: saline) 99 % of control.

On to `CCN(CCOC(=O)Nc1cc([N+](=O)[O-])ccc1C)c1ccccc1`, for which the T/C was 87 % of control under setting [5], 94 % of control under setting [6] and 90 % of control under setting [7].

`CCOC(=O)CNC(=O)C1OC(n2cnc3c(N)ncnc32)C(O)C1O` (stereo unspecified): the T/C by setting is: (dose: 6.25 mg/kg/injection, schedule: Q01DX009 (ip), vehicle: saline) 105 % of control; (dose: 12.5 mg/kg/injection, schedule: Q01DX005 (ip), vehicle: saline) 102 % of control; (dose: 12.5 mg/kg/injection, schedule: Q01DX009 (ip), vehicle: saline) 110 % of control; (dose: 25.0 mg/kg/injection, schedule: Q01DX005 (ip), vehicle: saline) 114 % of control.
